Assay results reported in US10259810B2, “N-sulfonylated pyrazolo[3,4-b]pyridin-6-carboxamides and method of use” (AbbVie S.à.r.l., priority 2015, dated 2019).

What was measured:
[1] = target: T1, ΔF508-CFTR (Homo sapiens, UniProt P13569, DEL508-508); assay: CFTR cell surface levels using HRP-tagged ΔF508-CFTR expressing CFBE cells, intrinsic corrector capacity; assay type: cell-based; design: % Activation: concentration or dose not given beside the values
T1 construct: host or cells: CFBE41o-, doxycycline-inducible
T1 sequence (P13569 with tags, fused parts or gaps DEL508-508): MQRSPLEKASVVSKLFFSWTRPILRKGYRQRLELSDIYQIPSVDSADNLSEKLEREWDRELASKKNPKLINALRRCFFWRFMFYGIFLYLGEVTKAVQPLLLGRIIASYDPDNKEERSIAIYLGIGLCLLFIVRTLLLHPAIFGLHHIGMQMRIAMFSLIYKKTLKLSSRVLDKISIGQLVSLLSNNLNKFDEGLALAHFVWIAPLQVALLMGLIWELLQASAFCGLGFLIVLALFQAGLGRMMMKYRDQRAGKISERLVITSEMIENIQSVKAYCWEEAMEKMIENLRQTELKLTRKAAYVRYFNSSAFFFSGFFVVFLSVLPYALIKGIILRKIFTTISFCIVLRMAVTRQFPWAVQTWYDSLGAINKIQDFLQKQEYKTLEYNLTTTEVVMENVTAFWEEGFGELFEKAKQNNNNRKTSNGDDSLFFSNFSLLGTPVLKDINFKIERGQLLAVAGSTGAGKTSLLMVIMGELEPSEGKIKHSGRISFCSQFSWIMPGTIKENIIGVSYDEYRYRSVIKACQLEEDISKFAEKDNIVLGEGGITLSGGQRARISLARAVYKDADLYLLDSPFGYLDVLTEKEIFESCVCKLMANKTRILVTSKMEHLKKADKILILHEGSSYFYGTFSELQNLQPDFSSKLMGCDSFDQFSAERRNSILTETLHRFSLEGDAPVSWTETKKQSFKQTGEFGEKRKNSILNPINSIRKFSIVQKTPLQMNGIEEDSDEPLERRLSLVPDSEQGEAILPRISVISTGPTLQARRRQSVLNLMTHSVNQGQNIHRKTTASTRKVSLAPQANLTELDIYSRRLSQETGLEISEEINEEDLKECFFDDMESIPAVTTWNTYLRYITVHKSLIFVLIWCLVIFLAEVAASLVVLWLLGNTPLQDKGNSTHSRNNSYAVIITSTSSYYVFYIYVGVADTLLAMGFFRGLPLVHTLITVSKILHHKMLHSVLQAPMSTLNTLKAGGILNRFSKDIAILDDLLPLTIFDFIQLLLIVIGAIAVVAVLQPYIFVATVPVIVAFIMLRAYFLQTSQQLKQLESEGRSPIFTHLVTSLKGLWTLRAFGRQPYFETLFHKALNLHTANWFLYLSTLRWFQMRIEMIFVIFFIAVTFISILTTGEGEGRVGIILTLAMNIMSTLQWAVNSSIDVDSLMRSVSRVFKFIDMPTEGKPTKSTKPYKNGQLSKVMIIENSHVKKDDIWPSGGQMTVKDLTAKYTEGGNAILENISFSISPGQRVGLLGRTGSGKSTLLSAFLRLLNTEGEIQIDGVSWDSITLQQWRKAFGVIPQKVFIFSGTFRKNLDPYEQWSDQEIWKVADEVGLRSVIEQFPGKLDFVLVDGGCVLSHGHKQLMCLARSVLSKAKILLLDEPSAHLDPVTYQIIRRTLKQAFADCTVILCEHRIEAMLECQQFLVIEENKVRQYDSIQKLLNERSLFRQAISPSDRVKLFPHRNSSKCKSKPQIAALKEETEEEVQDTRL
Outline: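 Read-out: chemiluminescent HRP activity of ECL4-HRP-tagged ΔF508-CFTR at the cell surface, 15 min substrate in dark. Normalized as 100×(sample−DMSO)/(positive control−DMSO).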

[2] = target: T1, ΔF508-CFTR; assay: CFTR cell surface levels using HRP-tagged ΔF508-CFTR expressing CFBE cells, in the presence of a co-corrector; assay type: cell-based
Outline: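 Chemiluminescent read-out of surface HRP (15 min, dark) after PBS washes. Activity is normalized as 100×(sample−DMSO)/(3 μM co-corrector alone−DMSO).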

[3] = HRP-tagged ΔF508-CFTR expressing CFBE41o- cells, compound alone (intrinsic corrector capacity), 20 hours at 33° C.
[4] = HRP-tagged ΔF508-CFTR expressing CFBE41o- cells, compound alone (intrinsic corrector capacity), 20 hours at 33° C., read-out: EC50
[5] = HRP-tagged ΔF508-CFTR CFBE cells, in the presence of 3 μM co-corrector
[6] = HRP-tagged ΔF508-CFTR CFBE cells, in the presence of 3 μM co-corrector, read-out: EC50

Row | Compound | % Activation [1, 3] | EC50 [1, 4] | % Activation [2, 5] | EC50 [2, 6] | EC50 [1] | EC50 [2]
1 | CN(C)S(=O)(=O)NC(=O)c1cc(OCC2CCN(C3CCOCC3)CC2)c2c(C3CCC3)nn(-c3ccc(F)cc3)c2n1 [Compound 619, 3-cyclobutyl-N-(dimethylsulfamoyl)-1-(4-fluorophenyl)-4-{[1-(oxan-4-yl)piperidin-4-yl]methoxy}-1H-pyrazolo[3,4-b]pyridine-6-carboxamide] | 102.8% | 680 nM | 277.25% | 375 nM |  | 
2 | CCOc1nccc(-n2nc(C3CCC3)c3c(N4CCC(N5CCOCC5)CC4)cc(C(=O)NS(=O)(=O)N(C)C)nc32)n1 [Compound 622, 3-cyclobutyl-N-(dimethylsulfamoyl)-1-(2-ethoxypyrimidin-4-yl)-4-[4-(morpholin-4-yl)piperidin-1-yl]-1H-pyrazolo[3,4-b]pyridine-6-carboxamide] | 89.445% | 568 nM | 251.25% | 309 nM |  | 
3 | CC(C)Oc1nn(C2CCCCC2)c2nc(C(=O)NS(C)(=O)=O)cc(-c3ccc(C(=O)N4CC5CNCC5C4)cc3)c12 (centres unmarked) [Compound 631, 1-cyclohexyl-4-[4-(hexahydropyrrolo[3,4-c]pyrrole-2(1H)-carbonyl)phenyl]-N-(methanesulfonyl)-3-[(propan-2-yl)oxy]-1H-pyrazolo[3,4-b]pyridine-6-carboxamide] | 122.53% | 3340 nM | 352.63% | 2990 nM |  | 
4 | COC1CCN(Cc2ccc(-c3cc(C(=O)NS(C)(=O)=O)nc4c3c(OC(C)C)nn4C3CCCCC3)cc2)CC1 [Compound 635, 1-cyclohexyl-N-(methanesulfonyl)-4-{4-[(4-methoxypiperidin-1-yl)methyl]phenyl}-3-[(propan-2-yl)oxy]-1H-pyrazolo[3,4-b]pyridine-6-carboxamide] | 216.38% | 155 nM | 449.25% | 73.9 nM |  | 
5 | CC(C)Oc1nn(C2CCCCC2)c2nc(C(=O)NS(C)(=O)=O)cc(-c3ccc(CN4CC5CN(C)CC5C4)cc3)c12 (centres unmarked) [Compound 636, 1-cyclohexyl-N-(methanesulfonyl)-4-{4-[(5-methylhexahydropyrrolo[3,4-c]pyrrol-2(1H)-yl)methyl]phenyl}-3-[(propan-2-yl)oxy]-1H-pyrazolo[3,4-b]pyridine-6-carboxamide] | 182.7% | 573 nM | 388.85% | 434 nM |  | 
6 | CC(C)Oc1nn(C2CCCCC2)c2nc(C(=O)NS(C)(=O)=O)cc(-c3ccc(C(=O)N4CC5CN(C)CC5C4)cc3)c12 (centres unmarked) [Compound 637, 1-cyclohexyl-N-(methanesulfonyl)-4-[4-(5-methylhexahydropyrrolo[3,4-c]pyrrole-2(1H)-carbonyl)phenyl]-3-[(propan-2-yl)oxy]-1H-pyrazolo[3,4-b]pyridine-6-carboxamide] | 191.88% | 2500 nM | 413.4% | 971 nM |  | 
7 | CC(C)Oc1nn(C2CCCCC2)c2nc(C(=O)NS(C)(=O)=O)cc(-c3ccc(C4(C#N)CCN(C)CC4)cc3)c12 [Compound 639, 4-[4-(4-cyano-1-methylpiperidin-4-yl)phenyl]-1-cyclohexyl-N-(methanesulfonyl)-3-[(propan-2-yl)oxy]-1H-pyrazolo[3,4-b]pyridine-6-carboxamide] |  |  |  |  | 132 nM | 74.5 nM
8 | CC(C)Oc1nn(C2CCCCC2)c2nc(C(=O)NS(C)(=O)=O)cc(-c3ccc(C(=O)N4CC(N(C)C)C4)cc3)c12 [Compound 640, 1-cyclohexyl-4-{4-[3-(dimethylamino)azetidine-1-carbonyl]phenyl}-N-(methanesulfonyl)-3-[(propan-2-yl)oxy]-1H-pyrazolo[3,4-b]pyridine-6-carboxamide] | 203.62% | 175 nM | 416.48% | 107 nM |  | 
9 | CC(C)Oc1nn(C2CCCCC2)c2nc(C(=O)NS(C)(=O)=O)cc(-c3ccc(CN4CCN(C)CC45COC5)cc3)c12 [Compound 641, 1-cyclohexyl-N-(methanesulfonyl)-4-{4-[(8-methyl-2-oxa-5,8-diazaspiro[3.5]nonan-5-yl)methyl]phenyl}-3-[(propan-2-yl)oxy]-1H-pyrazolo[3,4-b]pyridine-6-carboxamide] | 205.35% | 74.9 nM | 443.12% | 46.3 nM |  | 
10 | CCN1CCN(Cc2ccc(-c3cc(C(=O)NS(C)(=O)=O)nc4c3c(OC(C)C)nn4C3CCCCC3)cc2)CC1 [Compound 642, 1-cyclohexyl-4-{4-[(4-ethylpiperazin-1-yl)methyl]phenyl}-N-(methanesulfonyl)-3-[(propan-2-yl)oxy]-1H-pyrazolo[3,4-b]pyridine-6-carboxamide] | 222% | 235 nM | 430.9% | 97.3 nM |  | 
11 | CC(C)Oc1nn(C2CCCCC2)c2nc(C(=O)NS(C)(=O)=O)cc(-c3ccc(CN4CCC(N(C)C)CC4)cc3)c12 [Compound 643, 1-cyclohexyl-4-(4-{[4-(dimethylamino)piperidin-1-yl]methyl}phenyl)-N-(methanesulfonyl)-3-[(propan-2-yl)oxy]-1H-pyrazolo[3,4-b]pyridine-6-carboxamide] | 181.65% | 506 nM | 445.25% | 497 nM |  | 
12 | COC1CCN(C2CCN(c3cc(C(=O)NS(C)(=O)=O)nc4c3c(OC(C)C)nn4-c3ccc(F)cc3)CC2)CC1 [Compound 644, 1-(4-fluorophenyl)-N-(methanesulfonyl)-4-(4-methoxy[1,4'-bipiperidin]-1'-yl)-3-[(propan-2-yl)oxy]-1H-pyrazolo[3,4-b]pyridine-6-carboxamide] | 266.9% | 253 nM | 529.95% | 160 nM |  | 
13 | CNS(=O)(=O)NC(=O)c1cc(N2CCC(N3CCC(F)CC3)CC2)c2c(C3CCC3)nn(-c3ccc(F)cc3)c2n1 [Compound 650, 3-cyclobutyl-4-(4-fluoro[1,4'-bipiperidin]-1'-yl)-1-(4-fluorophenyl)-N-(methylsulfamoyl)-1H-pyrazolo[3,4-b]pyridine-6-carboxamide] | 385.4% | 115 nM | 592.45% | 96.4 nM |  | 
14 | CC(C)N1CCN(C2CCN(c3cc(C(=O)NS(=O)(=O)N4CCC4)nc4c3c(C3CCC3)nn4-c3ccc(F)cc3)CC2)CC1 [Compound 651, N-(azetidine-1-sulfonyl)-3-cyclobutyl-1-(4-fluorophenyl)-4-{4-[4-(propan-2-yl)piperazin-1-yl]piperidin-1-yl}-1H-pyrazolo[3,4-b]pyridine-6-carboxamide] | 317.85% | 206 nM | 532.4% | 128 nM |  | 
15 | CN(C)S(=O)(=O)NC(=O)c1cc(N2CCC(N3CCOCC3)CC2)c2c(C3CCC3)nn(-c3cccc(OC(F)F)c3)c2n1 [Compound 652, 3-cyclobutyl-1-[3-(difluoromethoxy)phenyl]-N-(dimethylsulfamoyl)-4-[4-(morpholin-4-yl)piperidin-1-yl]-1H-pyrazolo[3,4-b]pyridine-6-carboxamide] | 289.03% | 84.1 nM | 499.65% | 24.9 nM |  | 
16 | CN(C(=O)c1cc(N2CCC(N3CCOCC3)CC2)c2c(C3CCC3)nn(-c3ccccc3)c2n1)S(C)(=O)=O [Compound 656, 3-cyclobutyl-N-(methanesulfonyl)-N-methyl-4-[4-(morpholin-4-yl)piperidin-1-yl]-1-phenyl-1H-pyrazolo[3,4-b]pyridine-6-carboxamide] | 102.63% |  | 289.68% |  |  | 
17 | COCC1CCN(c2cc(C(=O)N(C)S(C)(=O)=O)nc3c2c(C2CCC2)nn3-c2ccccc2)CC1 [Compound 657, 3-cyclobutyl-N-(methanesulfonyl)-4-[4-(methoxymethyl)piperidin-1-yl]-N-methyl-1-phenyl-1H-pyrazolo[3,4-b]pyridine-6-carboxamide] | 98% | 281 nM | 270.75% | 197 nM |  | 
18 | CCS(=O)(=O)N(C)C(=O)c1cc(N2CCC(N3CCOCC3)CC2)c2c(C3CCC3)nn(-c3ccccc3)c2n1 [Compound 658, 3-cyclobutyl-N-(ethanesulfonyl)-N-methyl-4-[4-(morpholin-4-yl)piperidin-1-yl]-1-phenyl-1H-pyrazolo[3,4-b]pyridine-6-carboxamide] | 99.025% |  | 270.6% |  |  | 
19 | CN1CCCN(C(=O)c2cc(N3CCC(CN4CCCC4)CC3)c3c(C4CCC4)nn(-c4ccccc4)c3n2)S1(=O)=O [Compound 660, 2-(3-cyclobutyl-1-phenyl-4-{4-[(pyrrolidin-1-yl)methyl]piperidin-1-yl}-1H-pyrazolo[3,4-b]pyridine-6-carbonyl)-6-methyl-1λ^6,2,6-thiadiazinane-1,1-dione] | 34.92% | 932 nM | 172.1% | 235 nM |  | 
20 | O=C(c1cc(N2CCC(CN3CCCC3)CC2)c2c(C3CCC3)nn(-c3ccccc3)c2n1)N1CCCS1(=O)=O [Compound 661, 2-(3-cyclobutyl-1-phenyl-4-{4-[(pyrrolidin-1-yl)methyl]piperidin-1-yl}-1H-pyrazolo[3,4-b]pyridine-6-carbonyl)-1λ^6,2-thiazolidine-1,1-dione] | 67.125% | 155 nM | 227.45% | 135 nM |  | 
